Assay results taken from patent US11590236B2, “Compositions and methods for altering macrophage phenotype” (priority 2019, dated 2023).

System: macrophages differentiated from human peripheral blood monocytes
Experiment: Cell death / viability of macrophages after drug exposure
Assay type: cell-based
Details: all concentrations tested
Protocol: As with Cu(II)-tilmanocept, MT1001.8 was evaluated using macrophages differentiated from human peripheral blood monocytes cultured in supplemented RPMI-1640 medium to which GM-CSF was added. The resulting macrophages were then exposed for 23 hours to MT1001.8 at different concentrations ranging from 0 (controls) to 6.68 μM. Free doxorubicin and the mannosylated dextran construct without the doxorubicin payload were also evaluated as controls. After the 23-hour exposure to the drug construct, the drug containing media were removed and replaced with fresh supplemented RPMI-1640 with GM-CSF and incubated for an additional 72 hours. This final 72-hour incubation in fresh medium was to permit the macrophages to recover from the drug treatment and to manifest any phenotype changes that might have been induced by exposure to the drug construct. All experiments were replicated 5-8 times with peripheral blood monocytes obtained from 5 separate donors. After the last 72-hour incubation, the media were collected and analyzed for their concentrations of various cytokines.

## COc1cccc2c1C(=O)c1c(O)c3c(c(O)c1C2=O)C[C@@](O)(C(=O)CO)C[C@@H]3O[C@H]1C[C@H](N)[C@H](O)[C@H](C)O1 [free doxorubicin, doxorubicin]
  cell death: high levels of cell death
